Each structure is given as a SMILES string.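 96-well plates; 48 h exposure; 5 concentrations. Endpoints by linear interpolation between flanking doses. Not reached: highest tested concentration assigned. TGI is the concentration that stops growth completely.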

In one assay the test system is SNB-75 CNS. Kind of assay: NCI tumour cell line growth inhibition, 48 h.
As to `Cc1ccc2c(c1C)CC1(Cc3c(ccc4c3CCC4)C1=O)C2=O` (stereo not drawn), the TGI was more than 100 µM.
`OCC1CCCC(n2cnc3c(=S)nc[nH]c32)O1` (stereo not drawn) yielded a TGI of more than 100 µM.
Still for that read-out and setting: the value for `CCCCc1c(O)nc(Nc2nc3ccccc3[nH]2)[nH]c1=O` was more than 100 µM.
Still for that read-out and setting: the value for `O=C1CC2C=CC(O)C(C1)C2` (stereo not drawn) was more than 100 µM.
The molecule `N#CC1=C(N)OC2=C(CSc3ccccc32)C1c1ccc(Br)cc1` (stereo not drawn) had a TGI of 21.7 µM.
The molecule `CCC(=O)C(c1ccccc1)c1ccccn1` (stereo not drawn) came in with a TGI of more than 100 µM.
The same measure, in the same setting: the same measure for `Cc1sc2nc3n(c(=O)c2c1C)N=CN(c1ccccc1)C3`: more than 100 µM.
Turning to `CC(C)(C)OC(=O)NC(C)(C)C(=O)NCCC(=O)O`, the TGI was more than 100 µM.
`CCOC(=O)CCC(NC(=O)c1ccc(OCc2nc3cc(C(F)(F)F)ccc3nc2-c2ccccc2)cc1)C(=O)OCC` (stereo not drawn) showed a TGI of 52.1 µM.
On the same count and under the same terms, the same measure for `O=c1c2c3ccccc3[nH]c2c2cccc3c2n1CCC3`: more than 100 µM; for `c1ccc([P+](CCNCCNCC[P+](c2ccccc2)(c2ccccc2)c2ccccc2)(c2ccccc2)c2ccccc2)cc1`: more than 100 µM; for `COc1ccc(-c2c(C#N)c(N)n(C3OC(CO)C(O)C(O)C3O)c(=S)c2C#N)cc1` (stereo not drawn): more than 100 µM.
The same measure, in the same setting: the value for `CCOC(=O)c1sc2nc(SC)nc3c2c1N=CN3c1ccc(Br)cc1` was more than 100 µM.
The molecule `CCOC(=O)c1c(NC(=O)c2ccccc2)sc2c1CCCC2` showed a TGI of more than 100 µM.
The same measure, in the same setting: the same measure for `CCOc1ccc(N/C(=C(/C(Cl)=C(/Cl)NCCN)[N+](=O)[O-])n2nnc3ccccc32)cc1`: more than 100 µM; for `CC(=O)NC1C(OCc2ccccc2)OC(CO)C(O)C1OCC(=O)N[C@@H](C)C(=O)N[C@H](CCC(=O)NCCNCCNc1c2ccccc2nc2cccc([N+](=O)[O-])c12)C(N)=O` (stereo partly drawn): more than 100 µM.
`c1sc(NC2=NCCO2)c2c1CCCC2` showed a TGI of more than 100 µM.
On the same count and under the same terms, the value for `COc1cc(COC(=O)N[C@H](C(=O)O)C(C)(C)C)c([N+](=O)[O-])cc1OC` was more than 100 µM; that for `CCN(CC)CCn1c2cc3c(cc2c(=O)c2cccnc21)OCCO3` was more than 10 µM.

For another assay, the system named is T-47D breast. Kind of assay: NCI tumour cell line growth inhibition, 48 h.
`Cc1ccc2c(c1)nc(N)n[n+]2[O-]` displayed a TGI of more than 100 µM.
Molecule `O=C1CC(O)c2c1csc2Br` (stereo not drawn) had a TGI of more than 100 µM.
For `CCOC(=O)c1cc(C2(O)CCN(Cc3ccccc3)C2=O)c(-c2cc(C)no2)[nH]1` (stereo not drawn), the TGI was found to be 74.8 µM.
For the molecule `CCOC(=O)c1cc(=C2\CCN(CC(C)CC)C2=S)/c(=C(/O)CC)[nH]1` (stereo not drawn), the TGI is 30.9 µM.
On the same count and under the same terms, the value for `Cc1ccc2c(c1C)CC1(Cc3c(ccc4c3CCC4)C1=O)C2=O` (stereo not drawn) was more than 100 µM; that for `OCC1CCCC(n2cnc3c(=S)nc[nH]c32)O1` (stereo not drawn) was more than 100 µM.
On to `CCCCc1c(O)nc(Nc2nc3ccccc3[nH]2)[nH]c1=O`, for which the TGI is more than 100 µM.
On the same count and under the same terms, the value for `O=C1CC2C=CC(O)C(C1)C2` (stereo not drawn) was more than 100 µM.
On the same count and under the same terms, the value for `N#CC1=C(N)OC2=C(CSc3ccccc32)C1c1ccc(Br)cc1` (stereo not drawn) was 25.8 µM; that for `CCC(=O)C(c1ccccc1)c1ccccn1` (stereo not drawn) was more than 100 µM; that for `Cc1ccc(-c2cc(N)n(-c3nc4c([nH]3)c(=O)n(C)c(=O)n4C)n2)cc1` was 23.6 µM.
On the same count and under the same terms, the same measure for `Cc1sc2nc3n(c(=O)c2c1C)N=CN(c1ccccc1)C3`: more than 100 µM.
Regarding `CC(C)(C)OC(=O)NC(C)(C)C(=O)NCCC(=O)O`, the TGI is more than 100 µM.
The molecule `CCOC(=O)CCC(NC(=O)c1ccc(OCc2nc3cc(C(F)(F)F)ccc3nc2-c2ccccc2)cc1)C(=O)OCC` (stereo not drawn) displayed a TGI of more than 100 µM.
On the same count and under the same terms, the same measure for `CC12CC(c3ccccc3O1)C(C(=O)Nc1ccc(F)cc1)C(=O)N2` (stereo not drawn): more than 100 µM; for `O=c1c2c3ccccc3[nH]c2c2cccc3c2n1CCC3`: more than 100 µM; for `c1ccc([P+](CCNCCNCC[P+](c2ccccc2)(c2ccccc2)c2ccccc2)(c2ccccc2)c2ccccc2)cc1`: more than 100 µM.
`COc1ccc(-c2c(C#N)c(N)n(C3OC(CO)C(O)C(O)C3O)c(=S)c2C#N)cc1` (stereo not drawn) came in with a TGI of more than 100 µM.
For the molecule `CCOC(=O)c1sc2nc(SC)nc3c2c1N=CN3c1ccc(Br)cc1`, the TGI is more than 100 µM.
For the molecule `CCOC(=O)c1c(NC(=O)c2ccccc2)sc2c1CCCC2`, the TGI was more than 100 µM.
Still for that read-out and setting: the same measure for `CCOc1ccc(N/C(=C(/C(Cl)=C(/Cl)NCCN)[N+](=O)[O-])n2nnc3ccccc32)cc1`: more than 100 µM; for `CC(=O)NC1C(OCc2ccccc2)OC(CO)C(O)C1OCC(=O)N[C@@H](C)C(=O)N[C@H](CCC(=O)NCCNCCNc1c2ccccc2nc2cccc([N+](=O)[O-])c12)C(N)=O` (stereo partly drawn): more than 100 µM.
In turn, `O=C1CC(C(O)CO)CC(=O)N1` (stereo not drawn) registered a TGI of more than 100 µM.
Turning to `c1sc(NC2=NCCO2)c2c1CCCC2`, the TGI was more than 100 µM.
Same read-out and setting: the value for `COc1cc(COC(=O)N[C@H](C(=O)O)C(C)(C)C)c([N+](=O)[O-])cc1OC` was more than 100 µM; that for `CCN(CC)CCn1c2cc3c(cc2c(=O)c2cccnc21)OCCO3` was more than 10 µM.

A further assay deals with UO-31 renal. Nature of the assay: NCI tumour cell line growth inhibition, 48 h.
The molecule `Cc1ccc2c(c1)nc(N)n[n+]2[O-]` registered a TGI of more than 100 µM.
Consider `O=C1CC(O)c2c1csc2Br` (stereo not drawn), for which the TGI is 53.3 µM.
`CCOC(=O)c1cc(C2(O)CCN(Cc3ccccc3)C2=O)c(-c2cc(C)no2)[nH]1` (stereo not drawn) returned a TGI of more than 100 µM.
Still for that read-out and setting: the same measure for `CCOC(=O)c1cc(=C2\CCN(CC(C)CC)C2=S)/c(=C(/O)CC)[nH]1` (stereo not drawn): 35.4 µM; for `Cc1ccc2c(c1C)CC1(Cc3c(ccc4c3CCC4)C1=O)C2=O` (stereo not drawn): more than 100 µM; for `OCC1CCCC(n2cnc3c(=S)nc[nH]c32)O1` (stereo not drawn): more than 100 µM.
The same measure, in the same setting: the same measure for `O=C1CC2C=CC(O)C(C1)C2` (stereo not drawn): more than 100 µM.
Still for that read-out and setting: the same measure for `N#CC1=C(N)OC2=C(CSc3ccccc32)C1c1ccc(Br)cc1` (stereo not drawn): 26.7 µM; for `CCC(=O)C(c1ccccc1)c1ccccn1` (stereo not drawn): more than 100 µM.
With `Cc1ccc(-c2cc(N)n(-c3nc4c([nH]3)c(=O)n(C)c(=O)n4C)n2)cc1`, the TGI stood at 73.1 µM.
On the same count and under the same terms, the same measure for `Cc1sc2nc3n(c(=O)c2c1C)N=CN(c1ccccc1)C3`: more than 100 µM.
The molecule `CC(C)(C)OC(=O)NC(C)(C)C(=O)NCCC(=O)O` came in with a TGI of more than 100 µM.
Same read-out and setting: the same measure for `CCOC(=O)CCC(NC(=O)c1ccc(OCc2nc3cc(C(F)(F)F)ccc3nc2-c2ccccc2)cc1)C(=O)OCC` (stereo not drawn): more than 100 µM; for `CC12CC(c3ccccc3O1)C(C(=O)Nc1ccc(F)cc1)C(=O)N2` (stereo not drawn): more than 100 µM; for `c1ccc([P+](CCNCCNCC[P+](c2ccccc2)(c2ccccc2)c2ccccc2)(c2ccccc2)c2ccccc2)cc1`: more than 100 µM.
On the same count and under the same terms, the same measure for `COc1ccc(-c2c(C#N)c(N)n(C3OC(CO)C(O)C(O)C3O)c(=S)c2C#N)cc1` (stereo not drawn): more than 100 µM; for `CCOC(=O)c1sc2nc(SC)nc3c2c1N=CN3c1ccc(Br)cc1`: more than 100 µM; for `CCOC(=O)c1c(NC(=O)c2ccccc2)sc2c1CCCC2`: more than 100 µM.
The same measure, in the same setting: the value for `CCOc1ccc(N/C(=C(/C(Cl)=C(/Cl)NCCN)[N+](=O)[O-])n2nnc3ccccc32)cc1` was more than 100 µM; that for `CC(=O)NC1C(OCc2ccccc2)OC(CO)C(O)C1OCC(=O)N[C@@H](C)C(=O)N[C@H](CCC(=O)NCCNCCNc1c2ccccc2nc2cccc([N+](=O)[O-])c12)C(N)=O` (stereo partly drawn) was more than 100 µM.
In turn, `O=C1CC(C(O)CO)CC(=O)N1` (stereo not drawn) displayed a TGI of more than 100 µM.
Still for that read-out and setting: the same measure for `c1sc(NC2=NCCO2)c2c1CCCC2`: more than 100 µM.
Same read-out and setting: the same measure for `COc1cc(COC(=O)N[C@H](C(=O)O)C(C)(C)C)c([N+](=O)[O-])cc1OC`: more than 100 µM.

The values above are taken from PubChem BioAssay (NCI).
